Patent US4680411A, “Pyrano[2,3-g]indoles useful as anti-ulcerous, anti-inflammatory and antalgic agent” (Societe de Recherches Industrielles, priority 1980, dated 1987)

Tests used:
[1] = Clinic: treatment of ulcers in man; type: in vivo
[2] = Inhibition of ulcer provoked by aspirin; type: in vivo, male Wistar rats; details: Rattus norvegicus; rats; 100 mg/kg IP at t=0 and again at t=18 h; aspirin 192 mg/kg per os; sacrificed at t=22 h; read-out: Aspirine induced ulcer % inhibition
Procedure: The experiment is carried out on male Wistar rats weighing 180 to 200 g.
At t=0 the rats are made to fast and a first administration of the product to be tested, at a dose of 100 mg/kg, is made IP. At t=18 hours, 2 ml of an ulcer-forming suspension with 192 mg of aspirin/kg are administered per os then a second IP administration of the product to be tested, at a dose of 100 mg/kg, is made.
At t=22 hours, the animals are sacrificed and the ulcers are marked as follows: small punctiform ulcers: mark 1 more extensive ulcers: mark 3 very extensive or very deep ulcers: mark 9
(§1) Table III hereinbelow deals with the LD50 and with the inhibition of the ulcers caused by aspirin, the inhibition of the oedema provoked by carragenine and cramping (the products to be tested being, in the latter two cases, administered by the IP route at a dose equal to one tenth of the LD50 IP).

[3] = Inhibition of ulcer provoked by serotonin (Hashizume technique); type: in vivo, male Sprague-Dawley rats; details: serotonin 60 mg/kg sub-cutaneous
Procedure: ULCER PROVOKED BY SEROTONIN The technique used is the one described by Hashizume, in Arch. Int. Pharmacodyn. 236, 96-108, (1978). The experiment is carried out on 3 batches of male Sprague-Dawley rats. Each batch includes 20 animals. The first batch constitutes the controls, the second is treated with Carbenoxolone, the third is treated with the product to be tested. The animals are made to fast 24 hours before the experiment. At t=0, the product to be tested is administered by the IP route to the third batch, 100 mg/kg of Carbenoxolone are administered per os to the second batch. At t=+10 mins., a sub-cutaneous injection is made of serotonin at 60 mg/kg in the three batches. At t=+250 mins., the animals are sacrificed. The stomachs are removed and spread out and the ulcers are marked as follows: small ulcer +=1 average ulcer ++=3 large ulcer +++=9 The results relative to the inhibition of the ulcers provoked by serotonin are given in Table IV hereinbelow with the doses of the products tested.

[4] = Toxicity, LD50 (DL50) I.P.; details: in vivo, ip
Description: The pharmacological tests carried out particularly with regard to toxicity, the ulcers provoked by aspirin and serotonin, and the anti-inflammatory and antalgic effects, are summarised hereinafter. The methods used are recalled hereinafter.
as §1

[5] = Inhibition of oedema provoked by carragenine (anti-inflammatory effect); type: in vivo; details: IP, dose equal to one tenth of the LD50 IP
Description: (§2) The techniques relative to the anti-inflammatory effects (oedema caused by carragenine) and antalgic effects (cramping) which were used are the conventional techniques described in the prior art.
as §1

[6] = Inhibition of cramping (antalgic effect); type: in vivo; details: IP, dose equal to one tenth of the LD50 IP
Description: as §2, §1

[7] = Clinic: treatment of pain in man; type: in vivo
[8] = Clinic: treatment of oedemas in man; type: in vivo

## Clc1cc2cc[nH]c2c2c1OCCC2 [Example 8, 5-chloro-7,8,9-trihydro-pyrano[2,3-g]indole]
[1]
  results in the treatment of ulcers: excellent results
[2]
  inhibition in vivo at 100 mg/kg: 42.5%
[3]; 45 mg/kg IP
  Serotonine ulcer % inhibition: 75%
[4]; I.P.
  LD50: 900 mg/kg
[5]
  Carragheenine oedema % inhibition: 33%
[6]
  Cramping % inhibition: 26%

## COc1cc2cc(C(=O)O)[nH]c2c2c1OCCC2 [Example 6, 5-methoxy-7,8,9-trihydro-pyrano[2,3-g]indole-2-carboxylic acid]
[7]
  results in the treatment of pain: excellent results
[2]
  inhibition in vivo at 100 mg/kg: 23%
[4]; I.P.
  LD50: > 800 mg/kg
[6]
  Cramping % inhibition: 66%

## COc1cc2cc[nH]c2c2c1OCCC2=NO [Example 23]
[1]
  results in the treatment of ulcers: excellent results
[2]
  inhibition in vivo at 100 mg/kg: 40%
[3]; 92 mg/kg IP
  Serotonine ulcer % inhibition: 52%
[4]
  DLo: > 800 mg/kg
[5]
  Carragheenine oedema % inhibition: 52%
[6]
  Cramping % inhibition: 51%

## O=C(O)c1cc2ccc3c(c2[nH]1)CCCO3 [Example 4, 7,8,9-trihydro-pyrano[2,3-g]indole-2-carboxylic acid]
[2]
  inhibition in vivo at 100 mg/kg: 11%
[4]; I.P.
  LD50: 600 mg/kg
[8]
  results in the treatment of oedemas: excellent results
[5]
  Carragheenine oedema % inhibition: 35%
[6]
  Cramping % inhibition: 36%

## c1cc2ccc3c(c2[nH]1)CCCO3 [Example 7, 7,8,9-trihydro-pyrano[2,3-g]indole]
[1]
  results in the treatment of ulcers: excellent results
[2]
  inhibition in vivo at 100 mg/kg: 46%
[3]; 75 mg/kg IP
  Serotonine ulcer % inhibition: 64%
[4]; I.P.
  LD50: 750 mg/kg
[6]
  Cramping % inhibition: 14%

## CN(C)Cc1c[nH]c2c3c(ccc12)OCCC3 [Example 14, 3-(7,8,9-trihydro-pyrano[2,3-g]indolyl)-N,N-dimethylmethylamine]
[1]
  results in the treatment of ulcers: excellent results
[2]
  inhibition in vivo at 100 mg/kg: 47.5%
[4]
  LD50: 180 mg/kg
[5]
  Carragheenine oedema % inhibition: 22%
[6]
  Cramping % inhibition: 67%

## CC1(C)[C@@H](OC(=O)CCC(=O)O)CC[C@]2(C)[C@H]3C(=O)C=C4[C@@H]5C[C@@](C)(C(=O)O)CC[C@]5(C)CC[C@@]4(C)[C@]3(C)CC[C@@H]12 [Carbenoxolone, reference compound]
[3]; Carbenoxolone 60 mg/kg IP as printed in table, method says 100 mg/kg per os
  Serotonine ulcer % inhibition: 64%

## COc1cc2cc[nH]c2c2c1OCCC2 [Example 9, 5-methoxy-7,8,9-trihydro-pyrano[2,3-g]indole]
[2]
  inhibition in vivo at 100 mg/kg: 51%
[4]; I.P.
  LD50: 650 mg/kg
[8]
  results in the treatment of oedemas: excellent results
[5]
  Carragheenine oedema % inhibition: 39%
[6]
  Cramping % inhibition: 41%

## COc1cc2cc[nH]c2c2c1OCCC2O (stereo not shown) [Example 24]
[4]; I.P.
  LD50: 1000 mg/kg
[8]
  results in the treatment of oedemas: excellent results
[5]
  Carragheenine oedema % inhibition: 40%
[6]
  Cramping % inhibition: 60%

## COc1cc2cc(C(=O)O)[nH]c2c2c1OCCC2=O [Example 19, 5-methoxy-9-oxo-7,8-dihydro-pyrano[2,3-g]indole-2-carboxylic acid]
[1]
  results in the treatment of ulcers: excellent results
[2]
  inhibition in vivo at 100 mg/kg: 49%
[4]; I.P.
  LD50: > 1000 mg/kg

## COc1cc2cc[nH]c2c2c1OCCC2=O [Example 21, 5-methoxy-9-oxo-7,8-dihydro-pyrano[2,3-g]indole]
[1]
  results in the treatment of ulcers: excellent results
[2]
  inhibition in vivo at 100 mg/kg: 60%
[3]; 60 mg/kg IP
  Serotonine ulcer % inhibition: 87%
[4]; I.P.
  LD50: 600 mg/kg
[5]
  Carragheenine oedema % inhibition: 49%
[6]
  Cramping % inhibition: 37%

## O=C(O)c1cc2cc(Cl)c3c(c2[nH]1)CCCO3 [Example 5, 5-chloro-7,8,9-trihydro-pyrano[2,3-g]indole-2-carboxylic acid]
[2]
  inhibition in vivo at 100 mg/kg: 28%
[4]; I.P.
  LD50: 300 mg/kg
[8]
  results in the treatment of oedemas: excellent results
[5]
  Carragheenine oedema % inhibition: 30%
[6]
  Cramping % inhibition: 35%
